The source of these data is patent US11261175B2 (priority 2017, dated 2022).

Format in all cases: cell-based
For test [1], the system named is JFH5a-Rluc-ad34 virus (HCV GT-2a). Put plainly: Anti-HCV activity using HCVcc (JFH5a-Rluc-ad34 virus) in Huh 7.5.1 cells, Renilla luciferase readout. As to conditions: Hepatitis C virus, GT2A, Huh-7.5.1, 72 h, read-out: HCV wt. GT-2a. How it is done: <Experimental Example 1> Measurement of Anti-HCV Activity of Compounds of Examples Using HCVcc
Step 1: Cell Line and Cell Culture
Huh 7.5.1 cells were grown in Dulbecco's Modified Eagle's medium (DMEM; Gibco) supplemented with antibiotics (100 U/mL penicillin, 10 μg/mL streptomycin) and 10% heat-inactivated fetal bovine serum (ΔFBS; PEAK) in a CO2 incubator at 37° C. with […].
Huh7.5.1 cells were transfected with in vitro transcription RNA of JFH5a-Rluc-ad34, a derivative of JFH1 with adaptive mutations in E2 and p7 regions, by electroporation. JFH5a-Rluc-ad34 virus contains Renilla luciferase (Rluc), which is convenient for virus proliferation assay. The cell culture medium containing HCV was collected 3-5 days after the electroporation and then filtered through a […] pore size filter.
Step 3: Antiviral Activity Test Using Infectious HCV Particles
Huh 7.5.1 cells were inoculated with JFH5a-Rluc-ad34 virus and incubated for 4 hours. Four hours after the virus inoculation, the Huh7.5.1 cells infected with HCV were cultured in the medium containing the compound of examples serially diluted. Three days later, the cells were harvested and the intracellular luciferase activity was measured using Renilla luciferase assay system (Promega). Finally, the luciferase activity was normalized with those obtained from the negative control cells (mock-treated cells).

Test [2] relates to HCV genotype 1b replicon with NS5A Y93H mutation. Description: Transiently transfected assay of genotype 1b resistance mutant RNA Y93H. As to conditions: Hepatitis C virus, Huh-7.5.1, 72 h, read-out: HCV Mutation Y93H. The text has this:
(§1) <Experimental Example 3> Transiently Transfected Assay of Genotype 1b Resistance Mutant RNAs
(§2) Replicon genomes substituted with Y93H, L31V and L31V+Y93H (double mutant), the resistance mutants to Daclatasvir with mutations at the NS5A protein domain 1.
(§3) These HCV resistance mutant genomes were linearized with scal restriction enzyme, and then the mutated HCV RNA was synthesized through in vitro transcription. Huh 7.5.1 cells were individually electroporated with HCV RNA with resistant mutations and plated in a 12 well plate. After 4 hours, Huh7.5.1 cells were seeded in DMEM containing the compounds of examples serially diluted for 3 days. Three days later, the cells were harvested and the intracellular luciferase activity was measured. The luciferase activity was normalized with those obtained from the negative control cells (mock-treated cells).

Test [3] has as its system HCV genotype 1b replicon with NS5A L31V+Y93H (double mutant). Description: Transiently transfected assay of genotype 1b resistance mutant RNA L31V+Y93H (double mutant). As to conditions: Hepatitis C virus, Huh-7.5.1, 72 h, read-out: HCV Mutation L31V + Y93H.
Source text: as §1, §2, §3

The test system of test [4] is HCV replicon NK5.1-Gluc (genotype 1b). Put plainly: Anti-HCV activity using HCV replicon NK5.1-Gluc (genotype 1b) in Huh 7.5.1 cells, luciferase readout. As to conditions: Hepatitis C virus, 72 h; Huh 7.5.1 cells with NK5.1-Gluc replicon, 3 days, Gaussia luciferase; read-out: HCV wt. GT-1b.
Test [5] has as its system HCV genotype 1b replicon with NS5A L31V mutation. Put plainly: Transiently transfected assay of genotype 1b resistance mutant RNA L31V. As to conditions: Hepatitis C virus, Huh-7.5.1, 72 h, read-out: HCV Mutation L31V.
Source text: as §1, §2, §3

The test system of test [6] is HCV replicon S52-Feo (genotype 3a). Put plainly: Anti-HCV activity using HCV replicon S52-Feo (genotype 3a) in Huh 7.5.1 cells, luciferase readout. As to conditions: Hepatitis C virus, 72 h; Huh 7.5.1 cells with S52-Feo replicon, 3 days, firefly luciferase; read-out: HCV wt. GT-3a.

The structures appear in SMILES notation.

`CCCCCC1(CCCCC)c2cc(NC(=O)[C@@H]3CCCN3C(=O)[C@H](NC(=O)OC)c3ccccc3)ccc2-c2ccc(NC(=O)[C@@H]3CC(=O)CN3C(=O)[C@H](NC(=O)OC)c3ccccc3)cc21` [Example 19, methyl ((R)-2-((S)-2-((7-((S)-1-((R)-2-((methoxycarbonyl)amino)-2-phenylacetyl)pyrrolidine-2-carboxyamido)-9,9-dipentyl-9H-fluorene-2-yl)carbamoyl)-4-oxopyrrolidine-1-yl)-2-oxo-1-phenylethyl)carbamate]: the EC50 lay in the range of 1 to 100 nM in test [1]; 0.1 to 1 nM in test [2]; 1 to 100 nM in test [3]; 0.01 to 0.1 nM in test [4]; 0.01 to 0.1 nM in test [5]; 1 to 100 nM in test [6].

Turning to `CCCCC1(CCCC)c2cc(NC(=O)[C@@H]3CC4(CC4)CN3C(=O)[C@H](NC(=O)OC)c3ccccc3)ccc2-c2ccc(NC(=O)[C@@H]3CC4(CC4)CN3C(=O)[C@H](NC(=O)OC)c3ccccc3)cc21` [Example 21, dimethyl ((1R,1′R)-((6S,6′S)-(((9,9-dibutyl-9H-fluorene-2,7-diyl)bis(azanediyl))bis(carbonyl))bis(5-azaspiro[2.4]heptane-6,5-diyl))bis(2-oxo-1-phenylethane-2,1-diyl))dicarbamate], the EC50 was in the range of 0.1 to 1 nM in test [1]; 1 to 100 nM in test [2]; 1 to 100 nM in test [3]; 0.001 to 0.01 nM in test [4]; 0.01 to 0.1 nM in test [5]; 0.01 to 0.1 nM in test [6].

Take `CCCCC1(CCCC)c2cc(NC(=O)[C@@H]3C[C@H]4CCC[C@H]4N3C(=O)[C@H](NC(=O)OC)c3ccccc3)ccc2-c2ccc(NC(=O)[C@@H]3C[C@H]4CCC[C@H]4N3C(=O)[C@H](NC(=O)OC)c3ccccc3)cc21` [Example 22, dimethyl ((1R,1′R)-((2S,2′S,3aR,3a′R,6aR,6a′R)-(((9,9-dibutyl-9H-fluorene-2,7-diyl)bis(azanediyl))bis(carbonyl))bis(hexahydrocyclopenta[b]pyrrole-2,1(2H)-diyl))bis(2-oxo-1-phenylethane-2,1-diyl))dicarbamate]: the EC50 in test [1] was 1 to 100 nM; in test [2], 0.01 to 0.1 nM; in test [3] it was greater than 100 nM; in test [4] it was 0.001 to 0.01 nM; in test [5], 0.001 to 0.01 nM; in test [6], 0.01 to 0.1 nM.

Consider `CCCCC1(CCCC)c2cc(NC(=O)[C@@H]3CC4(CC4)CN3C(=O)[C@H](NC(=O)OC)c3ccccc3)ccc2-c2ccc(NC(=O)[C@@H]3C[C@H]4CCC[C@H]4N3C(=O)[C@H](NC(=O)OC)c3ccccc3)cc21` [Example 25, methyl ((R)-2-((S)-6-((9,9-dibutyl-7-((2S,3aR,6aR)-1-((R)-2-((methoxycarbonyl)amino)-2-phenylacetyl)octahydrocyclopenta[b]pyrrole-2-carboxyamido)-9H-fluorene-2-yl)carbamoyl)-5-azaspiro[2.4]heptane-5-yl)-2-oxo-1-phenylethyl)carbamate], for which the EC50 was 1 to 100 nM in test [1]; 1 to 100 nM in test [2]; 1 to 100 nM in test [3]; 0.001 to 0.01 nM in test [4]; 0.001 to 0.01 nM in test [5]; 0.01 to 0.1 nM in test [6].

For `CCCCC1(CCCC)c2cc(NC(=O)[C@@H]3CC4(CC4)CN3C(=O)[C@H](NC(=O)OC)c3ccccc3)ccc2-c2ccc(-c3cnc([C@@H]4CCCN4C(=O)[C@@H](NC(=O)OC)C(C)C)[nH]3)cc21` [Example 26, methyl ((S)-1-((S)-2-(5-(9,9-dibutyl-7-((S)-5-((R)-2-((methoxycarbonyl)amino)-2-phenylacetyl)-5-azaspiro[2.4]heptane-6-carboxyamido)-9H-fluorene-2-yl)-1H-imidazole-2-yl)pyrrolidine-1-yl)-3-methyl-1-oxobutane-2-yl)carbamate], the EC50 in test [1] is 0.01 to 0.1 nM; in test [2], 0.1 to 1 nM; in test [3], greater than 100 nM; in test [4], 0.001 to 0.01 nM; in test [5] it was 0.01 to 0.1 nM; in test [6], 0.01 to 0.1 nM.

With `CCCC1(CCC)c2cc(NC(=O)[C@@H]3CC4(CN3C(=O)[C@H](NC(=O)OC)c3ccccc3)OCCO4)ccc2-c2ccc(-c3cnc([C@@H]4CCCN4C(=O)[C@@H](NC(=O)OC)C(C)C)[nH]3)cc21` [Example 27, methyl ((S)-1-((S)-2-(5-(7-((S)-7-((R)-2-((methoxycarbonyl)amino)-2-phenylacetyl)-1,4-dioxa-7-azaspiro[4.4]nonane-8-carboxyamido)-9,9-dipropyl-9H-fluorene-2-yl)-1H-imidazole-2-yl)pyrrolidine-1-yl)-3-methyl-1-oxobutane-2-yl)carbamate], the EC50 lay in the range of 0.01 to 0.1 nM in test [1]; 0.001 to 0.01 nM in test [2]; 1 to 100 nM in test [3]; 0.001 to 0.01 nM in test [4]; 0.001 to 0.01 nM in test [5]; 0.01 to 0.1 nM in test [6].

Regarding `CCCCC1(CCCC)c2cc(NC(=O)[C@@H]3C[C@H]4CCC[C@H]4N3C(=O)[C@H](NC(=O)OC)c3ccccc3)ccc2-c2ccc(-c3cnc([C@@H]4CCCN4C(=O)[C@@H](NC(=O)OC)C(C)C)[nH]3)cc21` [Example 28, methyl ((S)-1-((S)-2-(5-(9,9-dibutyl-7-((2S,3aR,6aR)-1-((R)-2-((methoxycarbonyl)amino)-2-phenylacetyl)octahydrocyclopenta[b]pyrrole-2-carboxyamido)-9H-fluorene-2-yl)-1H-imidazole-2-yl)pyrrolidine-1-yl)-3-methyl-1-oxobutane-2-yl)carbamate], the EC50 was 0.01 to 0.1 nM in test [1]; 0.1 to 1 nM in test [2]; greater than 100 nM in test [3]; 0.001 to 0.01 nM in test [4]; 0.01 to 0.1 nM in test [5]; 0.01 to 0.1 nM in test [6].

With `CCCCC1(CCCC)c2cc(NC(=O)[C@@H]3C[C@@H](O)CN3C(=O)[C@H](NC(=O)OC)c3ccccc3)ccc2-c2ccc(NC(=O)[C@@H]3C[C@@H](O)CN3C(=O)[C@H](NC(=O)OC)c3ccccc3)cc21` [Example 29, dimethyl ((1R,1′R)-((3R,3′R,5S,5′S)-(((9,9-dibutyl-9H-fluorene-2,7-diyl)bis(azanediyl))bis(carbonyl))bis(3-hydroxypyrrolidine-5,1-diyl))bis(2-oxo-1-phenylethane-2,1-diyl))dicarbamate], the EC50 in test [1] was in the range of 0.1 to 1 nM; in test [2], 0.01 to 0.1 nM; in test [3] it was 0.01 to 0.1 nM; in test [4], 0.001 to 0.01 nM; in test [5] it was 0.01 to 0.1 nM; in test [6] it was 0.01 to 0.1 nM.

Consider `CCC1(CC)c2cc(NC(=O)[C@@H]3CCCN3C(=O)[C@H](NC(=O)OC)c3ccccc3)ccc2-c2ccc(NC(=O)[C@@H]3CCCN3C(=O)[C@H](NC(=O)OC)c3ccccc3)cc21` [Example 30, dimethyl (1R,1′R)-2,2′-((2S,2′S)-2,2′-(9,9-diethyl-9H-fluorene-2,7-diyl)bis(azanediyl)bis(oxomethylene)bis(pyrrolidine-2,1-diyl))bis(2-oxo-1-phenylethane-2,1-diyl)dicarbamate], for which the EC50 was 0.1 to 1 nM in test [1]; 1 to 100 nM in test [2]; greater than 100 nM in test [3]; 0.01 to 0.1 nM in test [4]; 0.1 to 1 nM in test [5]; 0.1 to 1 nM in test [6].

As for `CCCCC1(CCCC)c2cc(NC(=O)[C@@H]3C[C@@H](O)CN3C(=O)[C@H](NC(=O)OC)c3ccccc3)ccc2-c2ccc(-c3cnc([C@@H]4CCCN4C(=O)[C@@H](NC(=O)OC)C(C)C)[nH]3)cc21` [Example 31, methyl((S)-1-((S)-2-(5-(9,9-dibutyl-7-((2S,4R)-4-hydroxy-1-((R)-2-((methoxycarbonyl)amino)-2-phenylacetyl)pyrrolidine-2-carboxyamido)-9H-fluorene-2-yl)-1H-imidazole-2-yl)pyrrolidine-1-yl)-3-methyl-1-oxobutane-2-yl)carbamate], the EC50 lay in the range of 0.1 to 1 nM in test [1]; 0.01 to 0.1 nM in test [2]; 1 to 100 nM in test [3]; 0.01 to 0.1 nM in test [4]; 0.1 to 1 nM in test [5]; 0.1 to 1 nM in test [6].
